Earlier results, collected in article PMC7377239, “Cardiovascular Effects of Polychlorinated Biphenyls and Their Major Metabolites” (Environmental Health Perspectives, 2020).

System: porcine pulmonary artery–derived EC
Design: method as in Hennig et al. 2002, 2005; Toborek et al. 1995
Conditions: ref Hennig et al. 2002, 2005, Toborek et al. 1995; cited from earlier work

## Clc1ccc(-c2ccc(Cl)c(Cl)c2)cc1Cl [PCB 77]
  EC toxicity: potent inducers of EC toxicity

## Clc1ccc(-c2cc(Cl)c(Cl)c(Cl)c2Cl)cc1 [PCB 114]
  EC toxicity: potent inducers of EC toxicity

## Clc1ccc(-c2cc(Cl)c(Cl)cc2Cl)cc1Cl [PCB 118]
  EC toxicity: potent inducers of EC toxicity
